Reference: PubChem BioAssay AID179 (DTP/NCI, 2004)
Activity calls are given as the source filed them.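 Rule for the calls: active = compounds giving half or more protection of infected cells from virus-caused growth loss, again on retest; inactive = the rest.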 Where a SMILES comes first, the peptide text is derived from it. [ ]: non-standard residue; d: D form. The star is where a group is joined. Phe(4-NO2) = N[CH](Cc1ccc([N+](=O)[O-])cc1)C(=O)O; X9 = CC(=O)NC1C(N*)OC(CO)C(O)C1O; Boc = CC(C)(C)OC(=O)*

Tested on: CEM cells HIV-1 protection, formazan growth assay
Test: NCI AIDS Antiviral Assay
Conditions: for IC50: measured here: growth of uninfected CEM cells
Method in brief: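 CEM (human) cells, HIV-1 infected vs uninfected, 5-point dosing, formazan growth read-out. Retest threshold 50% protection.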

Row | SMILES | EC50 [µM] | IC50 [µM] | outcome
1 | CCC(C)C(NC(=O)CNC(=O)C(Cc1c[nH]cn1)NC(=O)C(NC(=O)C(CS)NC(=O)C(CCC(N)=O)NC(=O)C(NC(=O)C(NC(=O)C(CO)NC(=O)C(NC(=O)C(CC(=O)NC1OC(CO)C(O)C(O)C1NC(C)=O)NC(=O)C(NC(=O)C(CS)NC(=O)C1CCCN1C(=O)CNC(=O)C(NC(=O)CN)C(C)O)C(C)O)C(C)C)C(C)O)C(C)C)C(C)O)C(=O)NC(CCCNC(=N)N)C(N)=O (stereo not given) (H-GTGPCTD(X9)VSTVQCTHGIR-NH2; configuration not given here) | > 50.1 | > 50.1 | –
2 | CC(C)CNC1=NCC(C)S1 (stereo not given) | > 200 | > 200 | –
3 | O=S(=O)(O)c1cc(S(=O)(=O)O)c2c(Nc3ccnc4ccccc34)ccc(S(=O)(=O)O)c2c1 | > 200 | > 200 | –
4 | COc1cc2c(cc1O)CC[C@@H]1C2CC[C@@]2(C)C1CC[C@@H]2O (stereo not given in full) | > 2 | 0.331 | –
5 | CC(=O)Nc1ccc2c(C(=O)O)c(C)c(=O)[nH]c2n1 | > 200 | 112 | –
6 | CC(C)(C)c1cc(C(=O)[O-])c([OH2+])c(C(C)(C)C)c1.CC(C)(C)c1cc(C(=O)[O-])c([OH2+])c(C(C)(C)C)c1.[Mn+2] | > 85.1 | 33.9 | –
7 | C/C(O)=C(/C=NC(=S)c1ccncc1)C(=O)Nc1ccccc1 | > 200 | > 200 | –
8 | CN(C)c1ccc(C(C#N)NNC(=O)Cc2ccccc2)cc1 (stereo not given) | > 85.1 | > 85.1 | –
9 | CC1=COC(=O)c2ccccc2N1 | > 537 | 141 | –
10 | CN1C(=O)C2CCC(=O)N2c2cccnc21 (stereo not given) | > 200 | > 200 | –
11 | CCN(CC)CCNc1ccc([N+](=O)[O-])c2nc3ccccc3c(N)c12 | > 100 | 0.575 | –
12 | c1ccc(C2=Nc3nc4ccccc4n3C(c3ccccc3)C2)cc1 (stereo not given) | > 151 | > 151 | –
13 | CCn1c2ccc(C(=O)CCCN(C)C)cc2c2cc(C(=O)CCCN(C)C)ccc21 | > 380 | 0.123 | –
14 | COC(=O)C1C(=O)C(C(=O)OC)C2(C)C(C(=O)OC)C(=O)C(C(=O)OC)C12 (stereo not given) | > 468 | > 468 | –
15 | CNC(=O)CCC(NC(=O)OC(C)(C)C)C(=O)NC(Cc1ccc([N+](=O)[O-])cc1)C(=O)NCC(=O)NC (stereo not given) (Boc-Glu(NHMe)-[Phe(4-NO2)]-Gly-NHMe; configuration not given here) | > 200 | > 200 | –
16 | S=C1N(c2ccc(Cl)cc2)C2=C(N=Nc3ccccc3Cl)C(=Nc3ccccc3S2)N1c1ccccn1 | > 46.8 | 21.9 | –
17 | CCO[C@@H]1OC(=O)[C@H]2C(c3ccc(Cl)cc3Cl)=NO[C@@H]12 | > 22.9 | > 22.9 | –
18 | Cc1cc(C)nc(NS(=O)(=O)c2ccc(NCN3C(=O)c4ccccc4C3=O)cc2)n1 | > 200 | 110 | –
19 | C=CCCC1(CC(Sc2ccccc2)P(=O)(c2ccccc2)c2ccccc2)OCCO1 (stereo not given) | > 200 | > 200 | –

Row | SMILES | EC50 [µM] | IC50 [µM] | outcome
20 | S=c1[nH][nH]c(=S)s1 | 288 | 501 | –
21 | Cc1cc(=O)n2c(nc3cc([N+](=O)[O-])ccc32)s1 | > 200 | 186 | –
22 | COC(=O)/C(=C\c1ccco1)P(=O)(OC)OC | > 200 | 191 | –
23 | COc1cc2c(c([N+](=O)[O-])c1)NC(=O)C(c1ccccc1)S2 (stereo not given) | > 200 | 110 | –
24 | CCC1C(NC(=O)OC)C(=O)N1[C@@H](C)c1ccccc1 (stereo not given in full) | > 200 | > 200 | –
25 | Cc1ccc2c(c1)Nc1ccccc1C(=O)N2 | > 200 | > 200 | –
26 | O=c1c(Sc2c(SCSc3cnc4ccccc4c3Sc3c[nH]c4ccccc4c3=O)cnc3ccccc23)c[nH]c2ccccc12 | > 100 | > 100 | –
27 | Cc1cn(C2CC(N=[N+]=[N-])C(COP(=O)(OCC(=O)c3ccccc3)OCC(=O)c3ccccc3)O2)c(=O)[nH]c1=O (stereo not given) | 0.00741 | 2 | –
28 | O=S1(=O)CC2(N3CCCC3)CCCCC21 (stereo not given) | > 1100 | 617 | –
29 | COc1ccc(/C=C/C(=O)c2nc3ccccc3[nH]2)cc1 | > 200 | 3.98 | –
30 | CCN(CC)CCC(=O)c1ccc(Sc2ccc(F)cc2)cc1 | – | – | inactive
31 | CC(=O)Nc1ccccc1 | > 1860 | > 1860 | –
32 | CC1=Nc2c([nH]c(=S)[nH]c2=O)NC(c2c(Cl)cccc2Cl)C1 (stereo not given) | > 7.76 | > 7.76 | –
33 | CSc1cc(-c2ccccn2)nc(-c2ccccn2)c1.CSc1cc(-c2ccccn2)nc(-c2ccccn2)c1.[O-][Cl+3]([O-])([O-])[O-].[Zn+2] | > 200 | 0.0631 | –
34 | COC(=O)c1cc(Cc2cc(C(=O)OC)c(OC)c(C(F)(F)F)c2)cc(C(F)(F)F)c1OC | > 200 | 25.7 | –
35 | CC(C)(C)[Si](C)(C)OCC1OC(n2ccc(=O)[nH]c2=O)C(O[Si](C)(C)C(C)(C)C)C1C/C=[N+](/[O-])CC1OC(n2ccc(=O)[nH]c2=O)C(O[Si](C)(C)C(C)(C)C)C1O[Si](C)(C)C(C)(C)C (stereo not given) | > 100 | > 100 | –
36 | O=[N+]([O-])c1ccc(N=Cc2ccc(Cl)cc2)cc1 | > 200 | 9.77 | –
37 | COc1ccc(-n2c(=O)c3[nH]cnc3n(-c3ccc(OC)cc3)c2=S)cc1 | > 200 | > 200 | –
38 | O=C(Cn1c(-c2ccccc2)cc2ccccc21)N1CCOCC1 | > 200 | > 200 | –
